Measured values reported in patent US20020028938A1, “Prostaglandin endoperoxide H synthase biosynthesis inhibitors” (priority 1997, published 2002).

melting point | SMILES
132 to 136 °C | CC(C)(C)c1ccc(-n2ncc(-c3ccc(S(C)(=O)=O)cc3)c(-c3ccc(F)cc3)c2=O)cc1 [Example 159, 2-(4-t-Butylphenyl)-4-(4-fluorophenyl)-5-[4-(methylsulfonyl)phenyl]-3(2H)-pyridazinone]
176 to 178 °C | CC(C)(O)COc1c(-c2ccc(S(N)(=O)=O)cc2)cnn(-c2ccc(F)c(Cl)c2)c1=O [Example 480, 2-(3-Chloro-4-fluorophenyl)-4-(2-hydroxy-2-methyl-1-propoxy)-5-[4-(aminosulfonyl)phenyl]-3(2H)-pyridazinone]
166 to 167 °C | CS(=O)(=O)c1ccc(-c2cnn(-c3ccc(F)cc3)c(=O)c2OCC2CC2)cc1 [Example 416, 2-(4-Fluorophenyl)-4-cyclopropylmethoxy-5-[4-(methylsulfonyl)phenyl]-3(2H)-pyridazinone]
150 to 152 °C | NS(=O)(=O)c1ccc(-c2cnn(CC(F)(F)F)c(=O)c2Oc2ccc(F)cc2)cc1 [Example 71, 2-(2,2,2-Trifluoroethyl)-4-(4-fluorophenoxy)-5-[4-(aminosulfonyl)phenyl]-3(2H)-pyridazinone]
135 to 137 °C | CSc1ccc(-c2cnn(-c3ccc(F)cc3)c(=O)c2OC(C)C)cc1 [Example 199, 2-(4-Fluorophenyl)-4-(2-propoxy)-5-[4-(methylthio)phenyl]-3(2H)-pyridazinone]
105 to 107 °C | CSc1cc(-n2ncc(-c3ccc(S(C)(=O)=O)cc3)c(-c3ccc(F)cc3)c2=O)ccc1F [Example 259, 2-[4-Fluoro-3-(methylthio)phenyl]-4-(4-fluorophenyl)-5-[4-(methylsulfonyl)phenyl]-3(2H)-pyridazinone]
143 to 145 °C | CON=C(C)COc1c(-c2ccc(S(C)(=O)=O)cc2)cnn(-c2ccc(F)c(F)c2)c1=O [Example 461, 2-(3,4-Difluorophenyl)-4-[2-(methoxyimino)-1-propoxy]-5-[4-(methylsulfonyl)phenyl]-3(2H)-pyridazinone]
188 to 189 °C | CS(=O)(=O)c1ccc(-c2cnn(CC(=O)c3ccc(C#N)cc3)c(=O)c2-c2ccc(F)cc2)cc1 [Example 49, 2-(4-Cyanophenacyl)-4-(4-fluorophenyl)-5-[4-(methylsulfonyl)phenyl]-3(2H)-pyridazinone]
121 to 123 °C | CCOc1c(-c2ccc(S(C)(=O)=O)cc2)cnn(-c2ccc(F)c(F)c2)c1=O [Example 436, 2-(3,4-Difluorophenyl)-4-ethoxy-5-[4-(methylsulfonyl)phenyl]-3(2H)-pyridazinone]
166 to 167 °C | CS(=O)(=O)c1ccc(-c2cnn(Cc3ccccc3)c(=O)c2Cl)cc1 [Example 78, 2-Benzyl-4-chloro-5-[4-(methylsulfonyl)phenyl]-3(2H)-pyridazinone]
155 to 158 °C | CS(=O)(=O)c1ccc(-c2cnn(CC(F)(F)F)c(=O)c2NC2CCc3ccccc32)cc1 (stereo not shown) [Example 303, 2-(2,2,2-Trifluoroethyl)-4-(2,3-dihydro-1H-inden-1-ylamino)-5-[4-(methylsulfonyl)phenyl]-3(2H)-pyridazinone]
290 °C (dec.) | Cc1n[nH]c(=O)c(-c2ccc(F)cc2)c1-c1ccc(S(C)(=O)=O)cc1 [Example 63, 4-(4-Fluorophenyl)-5-[4-(methylsulfonyl)phenyl]-6-methyl-3(2H)-pyridazinone]
134 to 136 °C | CC(C)Oc1c(-c2ccc(S(C)(=O)=O)cc2)cnn(-c2cccc(Cl)c2)c1=O [Example 201, 2-(3-Chlorophenyl)-4-(2-propoxy)-5-[4-(methylsulfonyl)phenyl]-3(2H)-pyridazinone]
200 to 202 °C | CS(=O)(=O)c1ccc(-c2cnn(-c3ccsc3)c(=O)c2-c2ccc(F)cc2)cc1 [Example 179, 2-(3-Thienyl)-4-(4-fluorophenyl)-5-[4-(methylsulfonyl)phenyl]-3(2H)-pyridazinone]
100 to 101 °C | CS(=O)(=O)c1ccc(-c2cnn(-c3ccc(F)c(F)c3)c(=O)c2OCCC2CCCC2)cc1 [Example 439, 2-(3,4-Difluorophenyl)-4-(2-cyclopentyl-1-ethoxy)-5-[4-(methylsulfonyl)phenyl]-3(2H)-pyridazinone]
110 to 150 °C | C[Se](=O)(=O)c1ccc(-c2cnn(-c3ccc(F)cc3)c(=O)c2-c2ccc(F)cc2)cc1

melting point | SMILES
180 to 181 °C | CC1CCCC1n1ncc(-c2ccc(S(C)(=O)=O)cc2)c(-c2ccc(F)cc2)c1=O (stereo not shown) [Example 131, 2-(2-Methylcyclopentyl)-4-(4-fluorophenyl)-5-[4-(methylsulfonyl)phenyl]-3(2H)-pyridazinone]
168 to 170 °C | CC(C)(C)C(=O)Cn1ncc(-c2ccc(S(C)(=O)=O)cc2)c(-c2ccc(F)cc2)c1=O [Example 59, 2-(3,3-Dimethyl-2-oxobutyl)-4-(4-fluorophenyl)-5-[4-(methylsulfonyl)phenyl]-3(2H)-pyridazinone]
149 to 150 °C | CC#Cc1c(-c2ccc(S(C)(=O)=O)cc2)cnn(-c2ccc(F)c(F)c2)c1=O [Example 238, 2-(3,4-Difluorophenyl)-4-(1-propynyl)-5-[4-(methylsulfonyl)phenyl]-3(2H)-pyridazinone]
163 to 164 °C | CC(C)COc1c(-c2ccc(S(N)(=O)=O)c(F)c2)cnn(CC(F)(F)F)c1=O [Example 382, 2-(2,2,2-Trifluoroethyl)-4-(2-methylpropoxy)-5-[3-fluoro-4-(aminosulfonyl)phenyl]-3(2H)-pyridazinone]
153 to 156 °C | CS(=O)(=O)c1ccc(-c2cnn(Cc3ccncc3)c(=O)c2-c2ccc(F)cc2)cc1 [Example 28, 2-(4-Pyridylmethyl)-4-(4-fluorophenyl)-5-[4-(methylsulfonyl)phenyl]-3(2H)-pyridazinone]
255 to 256 °C | CS(=O)(=O)c1ccc(-c2cn[nH]c(=O)c2-c2ccc(F)cc2)cc1 [Example 11, 4-(4-Fluorophenyl)-5-[4-(methylsulfonyl)phenyl]-3(2H)-pyridazinone]
110 to 112 °C | CC(C)Oc1c(-c2ccc(S(C)(=O)=O)cc2)cnn(-c2cccc(F)c2)c1=O [Example 202, 2-(3-Fluorophenyl)-4-(2-propoxy)-5-[4-(methylsulfonyl)phenyl]-3(2H)-pyridazinone]
97 to 101 °C | COc1ccc(-n2ncc(-c3ccc(S(C)(=O)=O)cc3)c(-c3ccc(F)cc3)c2=O)cc1F [Example 184, 2-(3-Fluoro-4-methoxyphenyl)-4-(4-fluorophenyl)-5-[4-(methylsulfonyl)phenyl]-3(2H)-pyridazinone]
130 to 134 °C | Cc1cc(C)cc(-n2ncc(-c3ccc(S(C)(=O)=O)cc3)c(-c3ccc(F)cc3)c2=O)c1 [Example 170, 2-(3,5-Dimethylphenyl)-4-(4-fluorophenyl)-5-[4-(methylsulfonyl)phenyl]-3(2H)-pyridazinone]
145 to 146 °C | CS(=O)(=O)c1ccc(-c2cnn(CC(F)(F)F)c(=O)c2NCC2CC2)cc1 [Example 302, 2-(2,2,2-Trifluoroethyl)-4-(cyclopropylmethylamino)-5-[4-(methylsulfonyl)phenyl]-3(2H)-pyridazinone]
201 to 203 °C | NS(=O)(=O)c1ccc(-c2cnn(Cc3c(F)cc(F)cc3F)c(=O)c2-c2ccc(F)cc2)cc1 [Example 151, 2-(2,4,6-Trifluorobenzyl)-4-(4-fluorophenyl)-5-[4-(aminosulfonyl)phenyl]-3(2H)-pyridazinone]
140 to 142 °C | C[C@@H](O)CNc1c(-c2ccc(S(C)(=O)=O)cc2)cnn(CC(F)(F)F)c1=O [Example 307, 2-(2,2,2-Trifluoroethyl)-4-(2R-hydroxylpropylamino)-5-[4-(methylsulfonyl)phenyl]3(2H)-pyridazinone]
175 to 177 °C | CS(=O)(=O)c1ccc(-c2cnn(-c3ccc(F)cc3)c(=O)c2Cc2ccc(F)cc2)cc1 [Example 377, 2-(4-Fluorophenyl)-4-(4-fluorobenzyl)-5-[4-(methylsulfonyl)phenyl]-3(2H)-pyridazinone]
242 to 244 °C | Cc1ccc(-c2c(-c3ccc(S(C)(=O)=O)cc3)cnn(-c3ccc(F)cc3)c2=O)cc1 [Example 229, 2-(4-Fluorophenyl)-4-(4-methylphenyl)-5-[4-(methylsulfonyl)-phenyl]-3(2H)-pyridazinone]
90 to 92 °C | CCCC(CCOc1c(-c2ccc(S(C)(=O)=O)cc2)cnn(-c2ccc(F)cc2)c1=O)SC (stereo not shown) [Example 433, 2-(4-Fluorophenyl)-4-(3-methylthio-1-hexyloxy)-5-[4-(methylsulfonyl)phenyl]-3(2H)-pyridazinone]
152 to 154 °C | CS(=O)(=O)c1ccc(-c2cnn(CC(F)(F)F)c(=O)c2NCCCO)cc1 [Example 305, 2-(2,2,2-Trifluoroethyl)-4-(3-hydroxypropylamino)-5-[4-(methylsulfonyl)phenyl]-3(2H)-pyridazinone]

SMILES | melting point
CC(C)(O)CCOc1c(-c2ccc(S(C)(=O)=O)cc2)cnn(-c2ccc(Cl)c(Cl)c2)c1=O [Example 532, 2-(3,4-Dichlorophenyl)-4-(3-hydroxy-3-methyl-1-butoxy)-5-[4-(methylsulfonyl)phenyl]-3(2H)-pyridazinone] | 118 to 120 °C
CC(C)CCOc1c(-c2ccc(S(C)(=O)=O)cc2)cnn(-c2ccc(F)c(Cl)c2)c1=O [Example 538, 2-(3-Chloro-4-fluorophenyl)-4-(3-methyl-1-butoxy)-5-[4-(methylsulfonyl)phenyl]-3(2H)-pyridazinone] | 148 to 152 °C
CC(C)(O)CCOc1c(-c2ccc(S(N)(=O)=O)cc2)cnn(-c2ccc(F)cc2)c1=O [Example 470, 2-(4-Fluorophenyl)-4-(3-hydroxy-3-methyl-1-butoxy)-5-[4-(aminosulfonyl)phenyl]-3(2H)-pyridazinone] | 163 to 164 °C
CC(CCOc1c(-c2ccc(S(C)(=O)=O)cc2)cnn(-c2ccc(F)c(F)c2)c1=O)C(F)(F)F (stereo not shown) [Example 435, 2-(3,4-Difluorophenyl)-4-(3-trifluoromethyl-1-butoxy)-5-[4-(methylsulfonyl)phenyl]-3(2H)-pyridazinone] | 126 to 128 °C
CC(C)CCOc1c(-c2ccc(S(C)(=O)=O)cc2)cnn(-c2ccc(Cl)c(Cl)c2)c1=O [Example 540, 2-(3,4-Dichlorophenyl)-4-(3-methyl-1-butoxy)-5-[4-(methylsulfonyl)phenyl]-3(2H)-pyridazinone] | 130 to 134 °C
